Assays:
[1] = system: MYO18B mRNA in lung cancer cell lines (H157, A549); assay: MYO18B mRNA expression after treatment with 5-aza-dC and/or TSA, RT-PCR analysis; format: cell-based, human; conditions: 1.0 μM, FIG. 12
Description: FIG. 12 depicts the expression of MYO18B mRNA after treatment with 5-aza-dC and/or TSA in two lung cancer cell lines (H157, A549), as determined by RT-PCR analysis. Lane 1, no treatment; lane 2, treatment with 1.0 μM 5-aza-dC for 72 hr; lane 3, treatment with 1.0 μM TSA for 24 hr; lane 4, treatment with 1.0 μM 5-aza-dC for 72 hours, followed by treatment with 1.0 μM TSA for 24 hr. GAPDH expression served as a loading control.
A549 and NCI-H157 lung cancer cells (available from the American Tissue Culture Collection) were incubated with medium containing 1.0 μM 5-aza-dC (Sigma, St. Louis, Mo.) for 48 hr, then were incubated for an additional 24 hr in the presence of 1.0 μM TSA (Sigma, St. Louis, Mo.). Total RNA was isolated with TRIzol® Reagent (Invitrogen), and microarray analysis was performed as described above. Each treatment was performed in triplicate.
miRNA microarrays were used to analyze the expression of various miRNAs upon treatment with 5-aza-2′-deoxycytidine (5-aza-dC), a DNA methylation inhibitor, and/or Trichostatin A (TSA), a potent histone deacteylase inhibitor, in two lung cancer cell lines (A549 and NCI-H157).

[2] = system: miRNA expression in A549 and NCI-H157 lung cancer cells; assay: miRNA microarray after treatment with 5-aza-dC and/or TSA; format: cell-based, human; conditions: 1.0 μM, triplicate
Description: Microarray analysis was performed as previously described (Liu, C. G., et al., Proc. Natl. Acad. Sci. U.S.A. 101:9740-9744 (2004)). Briefly, 5 μg of total RNA was hybridized with miRNA microarray chips containing 352 probes in triplicate. Specifically, these chips contain gene-specific 40-mer oligonucleotide probes, spotted by contacting technologies and covalently attached to a polymeric matrix, which were generated from 161 human miRNAs, 84 mouse miRNAs, miRNAs from three other species and tRNA. The microarrays were hybridized in 6×SSPE (0.9 M NaCl/60 mM NaH2PO4.H2O/8 mM EDTA, pH 7.4)/30% formamide at 25° C. for 18 hr, washed in 0.75×TNT (Tris.HCl/NaCl/Tween 20) at 37° C. for 40 min, and processed using a method of direct detection of biotin-containing transcripts by streptavidin-Alexa647 conjugate (Molecular Probes, Carlsbad, Calif.). Processed slides were scanned using a PerkinElmer ScanArray XL5K Scanner, with the laser set to 635 nm, at Power 80 and PMT 70 setting, and a scan resolution of 10 μm. An average value of the three spot replicates for each miRNA was normalized and analyzed in BRB-ArrayTools version 3.2.3. After excluding negative values with hybridization intensity below background, normalization was performed by using a per chip on median normalization method and normalization to median array as reference. […]

SMILES | expression of MYO18B (transcriptionally-silenced gene) following treatment [1] | changes in miRNA expression on microarray after treatment [2]
Nc1ncn([C@H]2C[C@H](O)[C@@H](CO)O2)c(=O)n1 [5-aza-dC, 5-aza-2′-deoxycytidine] | increased expression | no miRNAs from the microarray displayed statistically-significant changes in expression
CC(/C=C/C(=O)NO)=C\[C@@H](C)C(=O)c1ccc(N(C)C)cc1 [TSA, Trichostatin A] | increased expression | no miRNAs from the microarray displayed statistically-significant changes in expression
